Data: PubChem BioAssay AID1963847 (Molecular Pharmacology Branch, DTP, NCI, 2024)

Tested on: 415267-285-R-J2-PDC complex spheroid viability
Test: Anticancer human tumor 415267-285-R-J2-PDC patient-derived breast carcinoma cell line growth inhibition [POLQ]
Settings: for IC50: curve of first compound; for viability, T/C: stronger effect = lower value
Summary of the method: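 Complex spheroid viability model combining PDC tumour cells with endothelial (HUVEC) and MSC stromal cells. Novobiocin, ART-558 or RP6685 were tested singly and in combination with standard and investigational anticancer drugs. Each was titrated in half-log steps from near clinical Cmax, or from 10 microM where Cmax was unknown.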

[1] = second compound 0.0316 µM, first compound 0.0316 µM
[2] = second compound 0.0316 µM, first compound 0.1 µM
[3] = second compound 0.1 µM, first compound 0.0316 µM
[4] = second compound 0.1 µM, first compound 0.1 µM
[5] = second compound 0.316 µM, first compound 0.0316 µM
[6] = second compound 0.316 µM, first compound 0.1 µM
[7] = second compound 1 µM, first compound 0.0316 µM
[8] = second compound 1 µM, first compound 0.1 µM
[9] = second compound 3.16 µM, first compound 0.0316 µM
[10] = second compound 3.16 µM, first compound 0.1 µM
[11] = second compound 10 µM, first compound 0.0316 µM
[12] = second compound 10 µM, first compound 0.1 µM
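Further: spheroids exposed to compounds for one week before readout.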
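Wherever viability, T/C is given: luminescence used as stand-in measure of viable cells; 100% = DMSO vehicle control viability.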

How did the IC50 (second compound 0.0316 µM) turn out when `CC[C@@]1(O)C(=O)OCc2c1cc1n(c2=O)Cc2cc3c(CN(C)C)c(O)ccc3nc2-1` + Cc1cccc(N(C)C(=O)C2C(O)CCN2c2nc(C)cc(C(F)(F)F)c2C#N)c1 was run?
The IC50 was 19.8 nM.

What about the IC50 (second compound 0.1 µM) of the same compound?
Its IC50 is 18.8 nM.

And the IC50 (second compound 0.316 µM)?
Its IC50 is 20.6 nM.

What about the IC50 (second compound 1 µM) of the same compound?
The IC50 was 18.9 nM.

What about the IC50 (second compound 3.16 µM) of the same compound?
Its IC50 is 18.5 nM.

What about the IC50 (second compound 10 µM) of the same compound?
The IC50 was 18.2 nM.

What about the viability, T/C (second compound 0.0316 µM, first compound 0.000316 µM) of the same compound?
Its viability, T/C is 90.7%.

And the viability, T/C (second compound 0.0316 µM, first compound 0.001 µM)?
Its viability, T/C is 102%.

What about the viability, T/C (second compound 0.0316 µM, first compound 0.00316 µM) of the same compound?
Its viability, T/C is 103%.

And the viability, T/C (second compound 0.0316 µM, first compound 0.01 µM)?
Its viability, T/C is 90.9%.

And the viability, T/C [1]?
Its viability, T/C is 22%.

And the viability, T/C [2]?
The viability, T/C was 7.7%.

And the viability, T/C (second compound 0.1 µM, first compound 0.000316 µM)?
Its viability, T/C is 96.9%.

And the viability, T/C (second compound 0.1 µM, first compound 0.001 µM)?
Its viability, T/C is 96.9%.

What about the viability, T/C (second compound 0.1 µM, first compound 0.00316 µM) of the same compound?
Its viability, T/C is 101%.

And the viability, T/C (second compound 0.1 µM, first compound 0.01 µM)?
The viability, T/C was 86.5%.

What about the viability, T/C [3] of the same compound?
Its viability, T/C is 19.9%.

What about the viability, T/C [4] of the same compound?
The viability, T/C was 7.92%.

What about the viability, T/C (second compound 0.316 µM, first compound 0.000316 µM) of the same compound?
Its viability, T/C is 102%.

And the viability, T/C (second compound 0.316 µM, first compound 0.001 µM)?
The viability, T/C was 98%.

And the viability, T/C (second compound 0.316 µM, first compound 0.00316 µM)?
The viability, T/C was 102%.

And the viability, T/C (second compound 0.316 µM, first compound 0.01 µM)?
The viability, T/C was 104%.

What about the viability, T/C [5] of the same compound?
Its viability, T/C is 19.2%.

What about the viability, T/C [6] of the same compound?
The viability, T/C was 9.41%.

And the viability, T/C (second compound 1 µM, first compound 0.000316 µM)?
The viability, T/C was 101%.

And the viability, T/C (second compound 1 µM, first compound 0.001 µM)?
The viability, T/C was 96.4%.

And the viability, T/C (second compound 1 µM, first compound 0.00316 µM)?
Its viability, T/C is 107%.

And the viability, T/C (second compound 1 µM, first compound 0.01 µM)?
The viability, T/C was 89.5%.

And the viability, T/C [7]?
The viability, T/C was 18.1%.

What about the viability, T/C [8] of the same compound?
Its viability, T/C is 7.15%.

And the viability, T/C (second compound 3.16 µM, first compound 0.000316 µM)?
Its viability, T/C is 98.5%.

And the viability, T/C (second compound 3.16 µM, first compound 0.001 µM)?
The viability, T/C was 102%.

What about the viability, T/C (second compound 3.16 µM, first compound 0.00316 µM) of the same compound?
Its viability, T/C is 92%.

What about the viability, T/C (second compound 3.16 µM, first compound 0.01 µM) of the same compound?
Its viability, T/C is 91.7%.

What about the viability, T/C [9] of the same compound?
Its viability, T/C is 13.8%.

And the viability, T/C [10]?
The viability, T/C was 8.04%.

And the viability, T/C (second compound 10 µM, first compound 0.000316 µM)?
Its viability, T/C is 108%.

And the viability, T/C (second compound 10 µM, first compound 0.001 µM)?
The viability, T/C was 96.2%.

What about the viability, T/C (second compound 10 µM, first compound 0.00316 µM) of the same compound?
The viability, T/C was 104%.

And the viability, T/C (second compound 10 µM, first compound 0.01 µM)?
Its viability, T/C is 85.6%.

What about the viability, T/C [11] of the same compound?
Its viability, T/C is 17.1%.

What about the viability, T/C [12] of the same compound?
The viability, T/C was 9.1%.

Which IC50 (second compound 0.0316 µM) does the source give for `COc1cc2cc(C(=O)CCC(=O)O)sc2cc1OC` + Cc1cccc(N(C)C(=O)C2C(O)CCN2c2nc(C)cc(C(F)(F)F)c2C#N)c1 here?
Its IC50 is greater than 10000 nM.

What about the IC50 (second compound 0.1 µM) of the same compound?
The IC50 was greater than 10000 nM.

What about the IC50 (second compound 0.316 µM) of the same compound?
The IC50 was greater than 10000 nM.

What about the IC50 (second compound 1 µM) of the same compound?
Its IC50 is greater than 10000 nM.

What about the IC50 (second compound 3.16 µM) of the same compound?
Its IC50 is greater than 10000 nM.

What about the IC50 (second compound 10 µM) of the same compound?
The IC50 was greater than 10000 nM.

What about the viability, T/C [1] of the same compound?
Its viability, T/C is 101%.

What about the viability, T/C [2] of the same compound?
Its viability, T/C is 103%.

What about the viability, T/C (second compound 0.0316 µM, first compound 0.316 µM) of the same compound?
Its viability, T/C is 101%.

And the viability, T/C (second compound 0.0316 µM, first compound 1 µM)?
Its viability, T/C is 104%.

And the viability, T/C (second compound 0.0316 µM, first compound 3.16 µM)?
The viability, T/C was 116%.

And the viability, T/C (second compound 0.0316 µM, first compound 10 µM)?
Its viability, T/C is 99%.

What about the viability, T/C [3] of the same compound?
The viability, T/C was 103%.

What about the viability, T/C [4] of the same compound?
Its viability, T/C is 98.7%.

What about the viability, T/C (second compound 0.1 µM, first compound 0.316 µM) of the same compound?
Its viability, T/C is 98.7%.

What about the viability, T/C (second compound 0.1 µM, first compound 1 µM) of the same compound?
Its viability, T/C is 102%.

What about the viability, T/C (second compound 0.1 µM, first compound 3.16 µM) of the same compound?
Its viability, T/C is 100%.

What about the viability, T/C (second compound 0.1 µM, first compound 10 µM) of the same compound?
The viability, T/C was 101%.

And the viability, T/C [5]?
The viability, T/C was 99.7%.

And the viability, T/C [6]?
Its viability, T/C is 107%.

And the viability, T/C (second compound 0.316 µM, first compound 0.316 µM)?
The viability, T/C was 101%.

What about the viability, T/C (second compound 0.316 µM, first compound 1 µM) of the same compound?
Its viability, T/C is 104%.

What about the viability, T/C (second compound 0.316 µM, first compound 3.16 µM) of the same compound?
Its viability, T/C is 91.5%.

What about the viability, T/C (second compound 0.316 µM, first compound 10 µM) of the same compound?
The viability, T/C was 109%.

What about the viability, T/C [7] of the same compound?
The viability, T/C was 111%.

And the viability, T/C [8]?
Its viability, T/C is 101%.

And the viability, T/C (second compound 1 µM, first compound 0.316 µM)?
The viability, T/C was 95.3%.

And the viability, T/C (second compound 1 µM, first compound 1 µM)?
Its viability, T/C is 103%.

What about the viability, T/C (second compound 1 µM, first compound 3.16 µM) of the same compound?
The viability, T/C was 100%.

And the viability, T/C (second compound 1 µM, first compound 10 µM)?
Its viability, T/C is 100%.

What about the viability, T/C [9] of the same compound?
The viability, T/C was 110%.

And the viability, T/C [10]?
Its viability, T/C is 112%.

And the viability, T/C (second compound 3.16 µM, first compound 0.316 µM)?
The viability, T/C was 99.1%.

What about the viability, T/C (second compound 3.16 µM, first compound 1 µM) of the same compound?
The viability, T/C was 102%.

And the viability, T/C (second compound 3.16 µM, first compound 3.16 µM)?
Its viability, T/C is 97.3%.

And the viability, T/C (second compound 3.16 µM, first compound 10 µM)?
Its viability, T/C is 115%.

And the viability, T/C [11]?
Its viability, T/C is 98.8%.

And the viability, T/C [12]?
The viability, T/C was 112%.

What about the viability, T/C (second compound 10 µM, first compound 0.316 µM) of the same compound?
The viability, T/C was 109%.

And the viability, T/C (second compound 10 µM, first compound 1 µM)?
Its viability, T/C is 105%.

What about the viability, T/C (second compound 10 µM, first compound 3.16 µM) of the same compound?
The viability, T/C was 103%.

And the viability, T/C (second compound 10 µM, first compound 10 µM)?
Its viability, T/C is 109%.
